# According to patent publication US10308641B2, “Crystal form of 3-(6-(1-(2,2-difluorobenzo[d][1,3]dioxole-5-yl)cyclopropane formamido)-3-methylpyridine-2-yl)benzoic acid and preparation method thereof” (CRYSTAL PHARMATECH CO., LTD., priority 2015, dated 2019):
# Columns and labels:
# Assay type in all cases: physicochemical
# [1] = Hygroscopicity assessment by dynamic vapor sorption (DVS); details: for Weight Gain under 80% Relative Humidity: DVS
# Description: Dynamic vapor sorption (DVS) data in the present disclosure was acquired by a SMS (Surface Measurement Systems Ltd.) DVS Intrinsic. About 10 mg of crystalline Form A of present disclosure was used for DVS test. The parameters of the dynamic vapor sorption (DVS) method of the present disclosure were as follows:
# Gas and flow rate: N2, 200 mL/min
# RH range: 0% RH to 95% RH
# Maximum equilibrate time: 180 min
# Humidity gradient: 10% (0% RH-90% RH), 5% (90% RH-95% RH).
# About 12.2 mg of crystalline Form A of the present disclosure was used for hygroscopicity testing using dynamic vapor sorption (DVS), crystalline Form A underwent a 0-95%-0 cycle of the relative humidity (RH) change. 4. The XRPD patterns of crystalline Form A before and after hygroscopicity assessment are depicted in FIG. 6. The pattern above is before DVS and the below one is after DVS.
# About hygroscopicity characterization description and definition of hygroscopicity (Chinese Pharmacopoeia 2010 edition appendix XIV Drug hygroscopic test guidelines, test at 25° C.+/−1° C., 80% Relative Humidity) • deliquescent: sufficient water is absorbed to form a liquid. • very hygroscopic: increase in mass is equal to or greater than 15%. • hygroscopic: increase in mass is less than 15% and equal to or greater than 2%. • slightly hygroscopic: increase in mass is less than 2% and equal to or greater than 0.2%. • no or almost no hygroscopic: increase in mass is less than 0.2%.
# [2] = Stability assessment on storage (XRPD and purity)
# Description: The crystalline Form A of the compound of formula (I) of the present disclosure was stored under 25° C./60% RH and 40° C./75% RH for 90 days. XRPD and purity of the samples were collected after storing for 15 days, 30 days and 90 days. […] The XRPD results of crystalline Form A before and after storing under 25° C./60% RH and 40° C./75% RH for 90 days are depicted in FIG. 7 (FIG. 7: the top, middle and bottom are initial crystalline Form A, crystalline Form A after storing at 25° C./60% RH and 40° C./75% RH for 90 days respectively).
# [3] = Solubility comparison, saturated solutions in SGF, FeSSIF, FaSSIF and water, by HPLC; details: for Solubility FeSSIF: pH5.0 FeSSIF; for Solubility FaSSIF: pH6.5 FaSSIF
# Description: Crystalline Form A of the present disclosure and Form I disclosed in CN101910156A are prepared into saturated solution in SGF (Simulated gastric fluids), pH5.0 FeSSIF (Fed state simulated intestinal fluids), pH6.5 FaSSIF (Fasted state simulated intestinal fluids) and water. Concentrations in the saturation solutions were tested after 1 hour, 4 hours and 24 hours by HPLC.
# [4] = as above; details: FaSSIF, FeSSIF and H2O after 1 hour, 2 hours and 24 hours
"Solubility H2O ([3]; H2O, 1 hour)","Solubility H2O ([3]; H2O, 4 hours)",Solubility SGF ([3]; 1 hour),Solubility SGF ([3]; 4 hours),Solubility SGF ([3]; 24 hours),Solubility FeSSIF ([3]; 1 hour),Solubility FeSSIF ([3]; 4 hours),Solubility FeSSIF ([3]; 24 hours),Solubility FaSSIF ([3]; 1 hour),Solubility FaSSIF ([3]; 4 hours),Solubility FaSSIF ([3]; 24 hours),SMILES,further results
8.6 µg/mL,16 µg/mL,0.9 µg/mL,1.9 µg/mL,2 µg/mL,17 µg/mL,18 µg/mL,20 µg/mL,8.2 µg/mL,11 µg/mL,9.5 µg/mL,"Cc1ccc(NC(=O)C2(c3ccc4c(c3)OC(F)(F)O4)CC2)nc1-c1cccc(C(=O)O)c1 [Form A, 3-(6-(1-(2,2-difluorobenzo [d] [1,3]dioxol-5-yl)cyclopropanecarboxamido)-3-methylpyridin-2-yl) benzoic acid]","Crystalline form after DVS test (XRPD before and after) ([1]; 0-95%-0 RH cycle): didn't change; Hygroscopicity class ([1]; Chinese Pharmacopoeia 2010 criteria, 25° C., 80% RH): non-hygroscopic or almost non-hygroscopic; Weight Gain under 80% Relative Humidity ([1]; 25° C., 80% RH, listed as Crystalline Form A of the compound of formula (I)): 0.10%; Weight Gain under 80% Relative Humidity ([1]; 25° C., 80% RH, listed as crystalline Form A of the compound of formula (I)): 0.10%; Stability (Purity %) 25° C./60% RH ([2]; 25° C./60% RH, 15 days): 99.94%; Stability (Purity %) 25° C./60% RH ([2]; 25° C./60% RH, 30 days): 99.90%; Stability (Purity %) 25° C./60% RH ([2]; 25° C./60% RH, 90 days): 99.93%; Stability under long-term stability condition ([2]; 25° C./60% RH, 90 days, XRPD and purity): stable; Stability (Purity %) 25° C./60% RH ([2]; 25° C./60% RH, Initial): 99.82%; Stability (Purity %) 40° C./75% RH ([2]; 40° C./75% RH, 15 days): 99.94%; Stability (Purity %) 40° C./75% RH ([2]; 40° C./75% RH, 30 days): 99.94%; Stability (Purity %) 40° C./75% RH ([2]; 40° C./75% RH, 90 days): 99.94%; Stability under accelerated stability condition ([2]; 40° C./75% RH, 90 days, XRPD and purity): stable; Stability (Purity %) 40° C./75% RH ([2]; 40° C./75% RH, Initial): 99.82%; solubility at 24 h ([3]; water, thermodynamic from solid, H2O, 24 hours): 25 µg/mL; Solubility compared with Form I disclosed in CN101910156A [4]: higher"
2.2 µg/mL,6.7 µg/mL,0.4 µg/mL,<0.22 µg/mL,<0.21 µg/mL,5.5 µg/mL,5.9 µg/mL,5.5 µg/mL,2.3 µg/mL,1.5 µg/mL,0.9 µg/mL,"Cc1ccc(NC(=O)C2(c3ccc4c(c3)OC(F)(F)O4)CC2)nc1-c1cccc(C(=O)O)c1 [Form I, 3-(6-(1-(2,2-difluorobenzo [d] [1,3]dioxol-5-yl)cyclopropanecarboxamido)-3-methylpyridin-2-yl) benzoic acid, reference compound]","Solubility H2O ([3]; H2O, 24 hours): 16 µg/mL"
